From patent US6362331B1, “Process for the preparation of antitumor agents” (priority 2001, dated 2002)

Key:
calf thymus DNA = test: Thermal denaturation with calf thymus DNA; format: binding; conditions: for Induced ΔTm after Incubation at 37° C. for 0 h / Induced ΔTm after Incubation at 37° C. for 18 h: [PBD]:[DNA] molar ratio 1:5; for ΔTm (elevation of helix melting temperature of CT DNA): 1:5 molar ratio (PBD):(DNA), incubation for 18 h at 37° C.
Experimental: (§1) Biological Activity: In vitro anticancer activity studies were carried out at National Caner Institute (USA) and the thermal denaturation of DNA was performed at School of Life Science, University of Hyderabad.
(§2) Table 1: Thermal denaturation with calf thymus DNA^a, at a [PBD]:[DNA]molar ratio of 1:5^b and in vitro one dose primary anticancer assay^c in the NCI-H460, MCF 7 and SF-268 for Vi, wherein R is H; R1 is H, OH or OAc; and n is 3 to 5.

NCI-H460 (Lung) = test: In vitro one dose primary anticancer assay (NCI), NCI-H460; format: cell-based, human
Experimental: as §1, §2
(§3) In this assay, for a 1:5 molar ratio of (PBD):(DNA), one of this mixed imine-amide PBD dimer VI, where n is 5, elevates the helix melting temperature of CT DNA remarkably to 17° C. after incubation for 18 h at 37° C.

MCF 7 (Breast) = test: In vitro one dose primary anticancer assay (NCI), MCF 7; format: cell-based, human
Experimental: as §1, §2, §3

SF-268 (CNS) = test: In vitro one dose primary anticancer assay (NCI), SF-268; format: cell-based, human
Experimental: as §1, §2, §3

P388 = conditions: Kaneko et al., J. Med Chem. 1985; cited from earlier work

Row | SMILES | Induced ΔTm after Incubation at 37° C. for 0 h (calf thymus DNA) [C] | Induced ΔTm after Incubation at 37° C. for 18 h (calf thymus DNA) [C] | Growth Percentage (Lung) NCI-H460 (NCI-H460 (Lung)) | Growth Percentage (Breast) MCF 7 (MCF 7 (Breast)) | Growth Percentage (CNS) SF-268 (SF-268 (CNS)) | in vivo antitumour activity (P388) | ΔTm (elevation of helix melting temperature of CT DNA) (calf thymus DNA) [°C]
1 | COc1cc2c(cc1OCCCCOc1cc3c(cc1OC)NC(=O)[C@H]1CCCN1C3=O)N=C[C@@H]1CCCN1C2=O [VI (n is 4)] | 5.0 | 8.5 | −16 | −41 | −81 | – | –
2 | COc1cc2c(cc1OC(C)=O)NC(=O)C1C[C@H](OC(C)=O)CN1C2=O (stereo partly drawn) [(7-methoxy-2-methylcarbonyloxy-5,11-dioxo-(2S)-2,3,5,10,11,11a-hexahydro-1H-pyrrolo[2,1-c][1,4]-benzodiazepine-5,11-dione-8-yl acetate] | – | – | – | – | – | significant in vivo antitumour activity | –
3 | COc1cc2c(cc1OCCCOc1cc3c(cc1OC)NC(=O)[C@H]1CCCN1C3=O)N=C[C@@H]1CCCN1C2=O [VI (n is 3)] | 6.5 | 7.0 | 4 | 10 | 11 | – | –
4 | COc1cc2c(cc1O)N=CC1CCCN1C2=O (stereo not drawn) [DC-81, reference compound] | 0.3 | 0.7 | – | – | – | – | 0.7
5 | COc1cc2c(cc1OCCCOc1cc3c(cc1OC)C(=O)N1CCC[C@H]1C=N3)N=C[C@@H]1CCCN1C2=O [DSB-120, reference compound] | 10.2 | – | – | – | – | – | –
6 | COc1cc2c(cc1OCCCCCOc1cc3c(cc1OC)NC(=O)[C@H]1CCCN1C3=O)N=C[C@@H]1CCCN1C2=O [VI (n is 5), 8-methoxy-7-3-[7-methoxy-5-oxo-(11aS)-2,3,4,11a-tetrahydro-1H-pyrrolo[2,1-c][1,4]-benzodiazepine-8-yloxy]pentyloxy-(11aR)-2,3,5,10,11a hexahydro-1H -pyrrolo[2,1-c][1,4]benzodiazepine-5,11-dione] | 14.0 | 17.0 | −39 | 7 | −21 | – | 17
